The source of these data is US7692011B2, “8-hydroxy and 8-mercapto quinazolinones” (Prana Biotechnology Limited, priority 2002, dated 2010).

Series [1] relates to Neuronal cortical cells treated with Aβ1-42. The series is described as follows: Assay 3(c) Aβ neurotoxicity and Aβ neuroprotection (MTS). The format is cell-based, mouse. Conditions: 20 uM Aβ1-42, 4 days. The method, then:
Primary Cortical Neuronal Cultures
Cortical cultures were prepared as previously described (White et al., 1998). Embryonic day 14 BL6Jx129sv mouse cortices were removed, dissected free of meninges and dissociated in 0.025% (wt/vol) trypsin. Dissociated cells were plated in 48 well culture plates at a density of 2×10^6 cells/mL in MEM with 25% (vol/vol) FCS and 5% (vol/vol) HS and incubated at 37° C., 2 hrs. Media was then replaced with Neurobasal media (Invitrogen Life Technologies) and B27 supplements (Invitrogen Life Technologies). Cultures were maintained at 37° C. in 5% CO2. Prior to experimentation, the culture medium was replaced with Neurobasal media and B27 minus antioxidants (Invitrogen Life Technologies).
(c) Assay for Aβ Neurotoxicity and Aβ Neuroprotection
Neuronal cortical cells were cultured for five days as per Assay 2. On day six the neurobasal (NB) media (Invitrogen Life Technologies) and B27 supplement (Invitrogen Life Technologies) were replaced with NB media and B27 supplement (no antioxidants). On day six, test compounds were individually added to the neuronal cell cultures:
The test compounds were dissolved in 100% DMSO to a concentration of 2.5 mM (10 mM if excess compound was weighed out per vial—then diluted to 2.5 mM). 2.5 mM stock solution was serially diluted 1 in 10 to give working solutions of 250 uM, 25 uM, 2.5 uM.
Aβ was initially dissolved in 20 mM NaOH to a concentration of 1 mM and sonicated for 5 minutes. The peptide was then diluted in H2O and 10×PBS to a final concentration of 200 uM Aβ in 1×PBS. The peptide was again sonicated for 5 minutes and then spun at 14000 rpm for 5 min and transferred to a fresh tube.
The test compounds were dissolved in 100% DMSO to a concentration of 2.5 mM (10 mM if excess compound was weighed out per vial—then diluted to 2.5 mM). 2.5 mM stock solution was serially diluted 1 in 10 [in NB media and B27 (no antioxidants)] to give working solutions of 250 uM, 25 uM, 2.5 uM. Test compounds were not added directly to cells, instead they were added to a 48 well ‘Drug Plate’ as comprised below:
Preparation of “Drug Plate”:
• Well 1: 515 ul NB+B27(no antioxidant)*+24 ul 25 uM test compound+60 ul Aβ diluent** • Well 2: 515 ul NB+B27(no antioxidant)+24 ul 250 uM test compound+60 ul Aβ diluent • Well 3: 515 ul NB+B27(no antioxidant)+24 ul test compound diluent***+60 ul Aβ1-42 • Well 4: 515 ul NB+B27(no antioxidant)+24 ul 2.5 uM test compound+60 ul Aβ1-42 • Well 5: 515 ul NB+B27(no antioxidant)+24 ul 25 uM test compound+60 ul Aβ1-42 • Well 6: 515 ul NB+B27(no antioxidant)+24 ul 250 uM test compound+60 ul […] • Well 7: 515 ul NB+B27(no antioxidant)+24 ul test compound diluent+60 ul Aβ1-42 diluent • Well 8: 600 ul NB+B27(no antioxidant) • N.B. 60 ul Aβ1-42 equals 20 ul Aβ1-42 per well equals 20 uM Aβ1-42
The Drug Plate was incubated at 37° C. for 15 mins. 200 ul of each well was added in triplicate to the corresponding cell plate. The cell plate was incubated at 37 C, for 4 days. • * NB media+B27 (no antioxidants), • ** Aβ diluent 2 mM NaOH, 1×PBS • *** PBT diluent 10% DMSO in NB+B27(no antioxidant) Completion of the Assay:
On the 4th day after treating the cells the assay is completed by adding MTS to the cells.

A short description of series [2]: Phase II clinical trial: therapeutic drug monitoring, blood levels by HPLC. The class given is in vivo. Conditions: human, oral, read-out: Steady state pre-dose blood level. The source says: (§1) Study design: The study was a double blind, placebo-controlled, parallel group randomized design. […] The duration of the study was 36 weeks.
The test system of series [3] is moderately severe AD patients. The series is described as follows: Phase II clinical trial in Alzheimer's disease: cognition (ADAS-cog). The format is in vivo, human. Conditions: more-severely affected groups.
From the text: The performance of the less-severely affected group (ADAS-cog<25) deteriorated negligibly over this interval, so cognitive changes could not be discriminated in this stratum.
Study population: The study took place at the AD clinical trials unit, Mental Health Research Institute of Victoria and at the Royal Melbourne Hospital. Criteria for inclusion in the study were: informed consent; a diagnosis of probable AD by NINCDS-ADRDA criteria (McKhann et al., 1984); AD Assessment Scale-cognitive (ADAS-cog) (Rosen et al., 1984) score of 18-45; Mini Mental State Examination (MMSE) (Folstein et al., 1975) score of 10-24; on donepezil 5 mg or 10 mg for at least 6 months; relative or carer willing and able to support the trial; able to complete trial examinations; primary sensorial functions intact.
as §1
Outcome measures: The primary clinical efficacy variable was a change from baseline score on the ADAS-cog conducted at baseline and at weeks 4, 12, 24 and 36. […]
Data preparation and statistical analysis: Data monitoring and management were undertaken by independent contractors (Kendle International and Health Research Solutions, Melbourne). […] Differences between groups on categorical measures were analysed using exact statistical methods in order to maximise power. […]

The nature of series [4]: Phase II clinical trial: plasma metal levels (ICP-MS). The class given is in vivo, human. The settings on record: AD patients, oral.
From the text: as §1
Blood samples were collected by antecubital venepuncture except on weeks 12, 24 and 36 when they were collected by an indwelling catheter. […] Zn data from these intervals were therefore omitted from analysis.
Outcome measures: The primary clinical efficacy variable was a change from baseline score on the ADAS-cog conducted at baseline and at weeks 4, 12, 24 and 36. This measure was chosen to allow comparability of treatment effects with current therapeutics such as donepezil, where efficacy trials also used ADAS-cog as their primary outcome measure (Rogers et al., 1998). Although numerous neuropsychological tests could be considered as secondary measures, it was necessary to avoid fatiguing the subjects at review. Therefore the only other cognitive test was the Mini-Mental State Exam (MMSE). The CIBIC+ (clinician interview based impression of change incorporating caregiver information), a subjective observational index was also conducted. Plasma Aβ, and plasma zinc and copper were all taken every four weeks.
Metal levels: Metals were measured by inductively coupled plasma mass spectrometry as previously described (Cherny et al., 2001).

Series [5] addresses T1, Aβ 1-42 (Homo sapiens, UniProt P05067).
T1 construct: The reaction solutions contained Aβ 1-42
The series can be described thus: Assay 1 Fluorometric H2O2 assay: inhibition of hydrogen peroxide generation by Aβ in the presence of copper. Conditions: Aβ 1-42 with Cu-Gly, DCF fluorescence. The format is biochemical. The protocol: Assay 1. Fluorometric H2O2 Assay
A fluorometric assay was used to test the ability of a test compound to inhibit hydrogen peroxide generation by Aβ in the presence of copper based on dichlorofluoroscein diacetate (DCF; Molecular Probes, Eugene Oreg.). The DCF solution (5 mM) in 100% dimethyl sulphoxide (previously purged with argon for 1 hr at 20° C.) was deacetylated in the presence of 0.025M NaOH for 30 min and neutralised at pH 7.4 to a final concentration of 1 mM. Horseradish peroxidase ([…]) stock solution was prepared to 1 μM at pH 7.4. The reactions were carried out in PBS, pH 7.4 in a 96 well plate (total volume=250 μl/well). The reaction solutions contained Aβ 1-42 at concentrations in the range of 50 nM to 1 μM, copper-glycine chelate (Cu-Gly), was prepared by adding CuCl2 to glycine in the ratio of 1:6 and added to the Aβ in the proportion 2Cu-Gly: 1Aβ), reducing agents including dopamine (5 μM) or ascorbic acid, deacetylated DCF 100 μM, and HRP, 0.1 μM. 1-10 μM EDTA or another chelator may also be present as a control for free copper, but was not required for the assay to function. The reaction mixture was incubated at 37 C for 60 min. Catalase (4000 units/ml) and H2O2 (1-2.5 μM) standards in PBS pH 7.4 may be included as positive controls. Fluorescence was recorded using a plate reader with excitation and emission filters at […] respectively. H2O2 concentration may be established by comparing fluorescence with the H2O2 standards. Inhibition of Aβ H2O2 production was assayed by including a given concentration of test compound(s) in the test wells.

Series [6] can be described thus: Assay 12 Turbidimetric solubility measurements. The format is physicochemical. The settings on record: kinetic from dmso stock, nephelometry. The protocol: Turbidimetric Solubility Measurements
The solubility estimate was measured at both pH 2.0 and pH 6.5. This is within the pH range that can be anticipated along the proximal gastrointestinal tract in humans.
The compounds were dissolved in DMSO to appropriate concentrations and then spiked into either 0.01M HCl (approx. pH=2.0) or pH 6.5 isotonic phosphate buffer, the final DMSO concentration being 1%. Samples were then analysed via Nephelometry to determine a solubility range. [as per D. Bevan and R. S. Lloyd, Anal. Chem. 2000, 72, 1781-1787].

[7] abbreviates: aqueous buffer, pH 6.5 isotonic phosphate buffer, 1% DMSO, read-out: Assay 12 Solubility at pH 6.5.
[8] abbreviates: simulated gastric fluid, 0.01 M HCl, pH 2.0, 1% DMSO, read-out: Assay 12 Solubility in 0.01 M HCl, pH 2.0.

Values after ≈ are worked out from the molar mass of the structure shown. Where a name gives a salt, the structure may show the parent alone. Read-outs that look alike come from different tables or passages of the source. A value given as a limit tells only on which side of the number the result lay.

T1 sequence (P05067 672-713 limits assumed): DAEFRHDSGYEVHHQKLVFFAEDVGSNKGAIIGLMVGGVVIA

As to `Cc1cnc2c(Cl)cc(Cl)c(O)c2n1` [PBT 1064, 6,8-Dichloro-3-methylquinoxalin-5-ol], the “Assay 3(c) Neuroprotection (% inhibition of Abeta toxicity)” value in series [1] was determined as 29%.

Turning to `Oc1c(I)cc(Cl)c2cccnc12` [PBT-1, iodochlorohydroxyquinoline], the concentration at 12 weeks in series [2] (250 mg/day, total daily dosage 250 mg) was found to be 4030 ± 2100 ng/mL. In addition, the concentration at 24 weeks in series [2] (500 mg/day, total daily dosage 500 mg) is 6740 ± 3700 ng/mL. For the same compound, in series [2] (750 mg/day, total daily dosage 750 mg), the concentration at 36 weeks came out at 7600 ± 2150 ng/mL. Also, the “Difference in mean change from baseline ADAS-cog score over placebo” value in series [3] (week 24) is 7.37 (95% CI: 1.51-13.24). Moreover, the “Difference in mean change from baseline ADAS-cog score over placebo” value in series [3] (week 36) is on record as 6.36 (95% CI: −0.50-13.23). Besides, in series [4], the “Effect on plasma Cu” value is “no effect” and the “Elevation of total plasma Zn” value is given as “≈ 30%”.

In the case of `COC(=O)c1nc(Cl)c2cccnc2c1O` [PBT-1045, 5-chloro-8-hydroxy-[1,6]naphthyridine-7-carboxylic acid methyl ester], in series [1], the “Assay 3(c) Neuroprotection (% inhibition of Abeta toxicity)” value stood at 12%. Also, the IC50 (usually the point on the concentration scale where inhibition reaches its midpoint) in series [5] came to 900 nM.

For the compound `O=c1ccnc2c(O)cccn12` [PBT-1048, 9-hydroxypyrido[1,2-a]pyrimidin-4-one], the “Assay 3(c) Neuroprotection (% inhibition of Abeta toxicity)” value in series [1] was 22%. In series [5], the IC50 worked out at 350 nM.

Take `O=c1[nH]cnc2c(O)cccc12` [PBT-1049, 8-hydroxy-3H-quinazolin-4-one]: the “Assay 3(c) Neuroprotection (% inhibition of Abeta toxicity)” value in series [1] is on record as 11%. Further, the IC50 in series [5] was 1600 nM.

For the compound `O=c1c2c(Cl)cc(Cl)c(O)c2ncn1-c1ccc(F)cc1` [PBT-1055, 5,7-Dichloro-3-(4-fluorophenyl)-8-hydroxy-3H-quinazolin-4-one], the solubility in series [6] (setting [7]) and in series [6] (setting [8]) was 3 to 6.3 µg/mL (≈ 9.23 to 19.4 µM) throughout. Also, the “Assay 3(c) Neuroprotection (% inhibition of Abeta toxicity)” value in series [1] was 29%. Besides, in series [5], the IC50 worked out at 750 nM.

With `Cc1cnc2c(O)c(Cl)cc(Cl)c2n1` [PBT-1065, 6,8-Dichloro-2-methylquinoxalin-5-ol], the “Assay 3(c) Neuroprotection (% inhibition of Abeta toxicity)” value in series [1] is given as 7%.

As for `CN(C)Cc1cnc2c(Cl)cc(Cl)c(O)c2n1` [PBT-1066, 6,8-Dichloro-3-(dimethylaminomethyl)quinoxalin-5-ol hydrochloride], the solubility in series [6] (setting [7]) and in series [6] (setting [8]) was greater than 100 µg/mL each time.

In the case of `O=c1[nH]cnc2c(O)c(Cl)cc(Cl)c12` [PBT-1067, 5,7-Dichloro-8-hydroxy-3H-quinazolin-4-one], the values for the solubility in series [6] (setting [7]) and in series [6] (setting [8]) were 25 to 50 µg/mL (≈ 108 to 216 µM) and 12.5 to 25 µg/mL (≈ 54.1 to 108 µM), respectively. The half-maximal inhibitory concentration (IC50) in series [5] amounted to 950 nM.

For the compound `O=c1c(-c2ccc(Cl)cc2)cnc2c(O)cccn12` [PBT-1069, 3-(4-chlorophenyl)-9-hydroxypyrido[1,2-a]pyrimidin-4-one], the IC50 in series [5] worked out at 600 nM.

On to `CNCc1ccc2cnc(C(=O)NCc3ccc(F)cc3)c(O)c2n1` [PBT-1070], for which the IC50 in series [5] was 1140 nM.
